The structures appear in SMILES notation. Values joined by “and” are separate entries in the source; they are usually repeats but may differ in a detail not shown here. Identical values can stand only once.

For orientation: EC50 means the concentration at which the effect is half-maximal.

The target of the first assay is PfBDP1-BRD (Plasmodium falciparum, UniProt Q8IJ72). In words: Isothermal titration calorimetry (ITC) with PfBDP1-BRD. It is filed as binding. The note with it: 25 °C, PBS pH 7.4, read-out: K D. As for the experimental part: and incubated at 37 °C and 180 rpm until an OD600 of ~2.5. The culture was cooled to 18 °C, induced with 0.2 mM IPTG, and incubated for 16 hours overnight. Cells were harvested by centrifugation (Beckman Coulter Avanti J-26 XP, Rotor: JLA 8.100 Rotor) at 5000 x g for 15 min at 4 °C.
Sequence of PfBDP1-BRD (Q8IJ72 entry or part of it): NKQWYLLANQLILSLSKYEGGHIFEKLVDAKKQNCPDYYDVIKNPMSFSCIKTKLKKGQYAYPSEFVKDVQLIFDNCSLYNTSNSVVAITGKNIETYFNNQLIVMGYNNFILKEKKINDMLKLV
The cell pellet was resuspended in PBS (1:3 w/v). The suspension was lysed by sonication (Branson Digital Sonifier 250; 15 min, 3 sec pulse, 10 sec pause, amplitude 70%) at 4 °C. Insoluble debris was removed by centrifugation (Beckmann Coulter Avanti-J30 I, Rotor: 30.50Ti) at 80,000 x g for 45 min at 4 °C. The lysate was then sterile-filtered (0.45 µm) and purified by […] affinity chromatography. The protein was cleaved using either PreScission Protease (PfBDP1-BRD-construct) or TEV Protease (PvBDP1-BRD-construct) separating the bromodomain from the fusion protein. Further separation of the cleaved GST tag and any remaining GST fusion protein was achieved by an additional round of GST affinity chromatography.
Specifically, we used Glutathione Sepharose High Performance (HP) resin (Cytiva, 17-5279-01). A 25 mL batch of resin was self-packed into a column, equilibrated with PBS, and used to purify GST-tagged proteins. The cleaved bromodomain, which […]
Following this step, the bromodomain protein was further purified by size exclusion chromatography using a HiLoad 26/600 Superdex 75 pg column (GE Healthcare).
Isothermal Titration Calorimetry (ITC)
Affinity was measured using a MicroCal VP-ITC microcalorimeter (Malvern Instruments). Measurements were performed at 25 °C with the ligand (0.04 mM) in PBS (Phosphate buffer saline; 137 mM NaCl, 10 mM phosphate, 2.7 mM KCl; pH 7.4) buffer present in the cell and the protein (0.4 mM) injected via a stirred syringe (351 revolutions per minute) in 5 min intervals (1 injection of 6 µL and 20 injections of 13.5 µL). Solutions were degassed prior to measurements. The first injection was discarded to account for any potential diffusion during equilibration. Automated baseline correction and peak integration were conducted using NITPIC[1,2]. Analysis, fitting, and thermodynamic calculations were performed using a binary interaction model in SEDPHAT[3], and plots were generated using GUSSI[4]. Confidence intervals were calculated using the “Automatic Confidence Interval Search with Projection” method in SEDPHAT. During the confidence level search, the confidence level was set to 0.99, and Simplex optimization was applied prior to Marquardt-Levenberg at each step. Error Surface Projection was performed by alternating between Simplex and Marquardt-Levenberg algorithms until convergence was achieved.
Supporting Table S1. Amino acid sequences of proteins used in this […]
PfBDP1-BRD Construct (Uniprot: Q8IJ72; Residues: 333-456)
The construct includes an N-terminal GST-tag followed by a Prescission protease cleavage site. After cleavage, the purified protein retains an additional […] sequence at […]
the N-terminus, which originates from the vector's multiple cloning site. […]
On the technique in general: Isothermal titration calorimetry measures the heat released or taken up as one component is titrated into another.
Turning to `Cc1cc(C(N)=O)cc(C)c1-c1[nH]c(C)c2c1CCCCC2=O` [RMM25, 3,5-Dimethyl-4-(3-methyl-4-oxo-2,4,5,6,7,8-hexahydrocyclohepta[c]pyrrol-1-yl)benzamide], the Kd was 0.896 µM.

On to `Cc1[nH]c(-c2ccc(C(N)=O)cc2)c2c1C(=O)CCCC2` [RMM15], for which the Kd is 4.49 µM. Take `Cc1[nH]c(-c2ccccc2)c2c1C(=O)CCCC2` [MPM3, 3-Methyl-1-phenyl-5,6,7,8-tetrahydrocyclohepta[c]pyrrol-4(2H)-one]: the Kd was 10 µM and 10.4 µM.

For `Cc1ccc(-c2[nH]c(C)c3c2CCCCC3=O)cc1` [RMM14], the Kd turned out to be 11.7 µM. On the same count and under the same terms, as for `Cc1cc(C#N)ccc1-c1[nH]c(C)c2c1CCCCC2=O` [RMM22, 3-Methyl-4-(3-methyl-4-oxo-2,4,5,6,7,8-hexahydrocyclohepta[c]pyrrol-1-yl)benzonitrile], the figure is 2.34 µM; as for `Cc1[nH]c(-c2ccc(C(=O)N(C)C)cc2)c2c1C(=O)CCCC2` [RMM17], 42.4 µM. On the same count and under the same terms, then `Cc1ccccc1-c1[nH]c(C)c2c1CCCCC2=O` [RMM2], with 3.9 µM and 3.94 µM; and `Cc1[nH]c(-c2cccc(NS(C)(=O)=O)c2C)c2c1C(=O)CCCC2` [RMM21, N-(2-Methyl-3-(3-methyl-4-oxo-2,4,5,6,7,8-hexahydrocyclohepta[c]pyrrol-1-yl)phenyl)methanesulfonamide], with 2.76 µM; and `CNc1cccc(-c2[nH]c(C)c3c2CCCCC3=O)c1` [RMM8, 3-Methyl-1-(3-(methylamino)phenyl)-5,6,7,8-tetrahydrocyclohepta[c]pyrrol-4(2H)-one], with 9.16 µM. On the same count and under the same terms, then `Cc1cc(C#N)cc(C)c1-c1[nH]c(C)c2c1CCCCC2=O` [RMM24, 3,5-dimethyl-4-(3-methyl-4-oxo-2,4,5,6,7,8-hexahydrocyclohepta[c]pyrrol-1-yl)benzonitrile], with 1.22 µM. For the compound `Cc1[nH]c(-c2cccc(S(N)(=O)=O)c2)c2c1C(=O)CCCC2` [RMM13], the Kd was 4.9 µM and 4.93 µM.

Take `Cc1[nH]c(-c2ccc(C#N)cc2)c2c1C(=O)CCCC2` [RMM18]: the Kd turned out to be 4.54 µM. Same read-out and setting: as for `CNC(=O)c1ccc(-c2[nH]c(C)c3c2CCCCC3=O)cc1` [RMM16], the figure is 5.14 µM; as for `Cc1[nH]c(-c2cccc(N)c2)c2c1C(=O)CCCC2` [MPM2], 6.7 µM and 6.74 µM. Still for that read-out and setting: as for `Cc1[nH]c(-c2cccc(N(C)C)c2)c2c1C(=O)CCCC2` [RMM9, 1-(3-(dimethylamino)phenyl)-3-methyl-5,6,7,8-tetrahydrocyclohepta[c]pyrrol-4(2H)-one], the figure is 8.03 µM; as for `Cc1[nH]c(-c2cccc(NS(C)(=O)=O)c2)c2c1C(=O)CCCC2` [RMM11], 4.7 µM. Still for that read-out and setting: then `Cc1[nH]c(-c2ccccc2Cl)c2c1C(=O)CCCC2` [RMM1], with 5.8 µM and 5.81 µM; and `Cc1[nH]c(-c2cccc(C(N)=O)c2)c2c1C(=O)CCCC2` [MPM8], with 7.45 µM. As to `Cc1[nH]c(-c2ccccc2C(F)(F)F)c2c1C(=O)CCCC2` [RMM4], the Kd is 2.9 µM and 2.94 µM. The same measure, in the same setting: as for `Cc1[nH]c(-c2cccc([N+](=O)[O-])c2)c2c1C(=O)CCCC2` [RMM7, 3-Methyl-1-(3-nitrophenyl)-5,6,7,8-tetrahydrocyclohepta[c]pyrrol-4(2H)-one], the figure is 16.9 µM; as for `COc1ccccc1-c1[nH]c(C)c2c1CCCCC2=O` [RMM5], 7.13 µM; as for `Cc1cccc(-c2[nH]c(C)c3c2CCCCC3=O)c1` [RMM6, 3-Methyl-1-(m-tolyl)-5,6,7,8-tetrahydrocyclohepta[c]pyrrol-4(2H)-one], 6.2 µM and 6.22 µM.

As to `Cc1[nH]c(-c2ccc(S(N)(=O)=O)cc2)c2c1C(=O)CCCC2` [RMM19], the Kd was determined as 6.39 µM.

Take `CC(=O)Nc1cccc(-c2[nH]c(C)c3c2CCCCC3=O)c1` [RMM10]: the Kd was 6.96 µM.

For `CCc1ccccc1-c1[nH]c(C)c2c1CCCCC2=O` [RMM3], the Kd turned out to be 9.17 µM.

For the compound `Cc1ccc(NS(C)(=O)=O)cc1-c1[nH]c(C)c2c1CCCCC2=O` [RMM20], the Kd came to 8.17 µM.

Still in this assay, the particulars now being: K D, 25 °C, PBS pH 7.4.
Turning to `Cc1[nH]c(-c2cc(N)ccc2Cl)c2c1C(=O)CCCC2` [MPM6, reference compound], the Kd was found to be 4.53 µM.

The test system of the next assay is P. falciparum 3D7. In words: Malaria SYBR green I based fluorescence assay, dose response, 3D7. Type of assay: cell-based. The note with it: Plasmodium falciparum, blood stage culture, 72 hours, mean (SD), 1 to 3 biological replicates. How it is done: (§1) The BRDi compounds had modest activity against all three strains (Table 2 ). […]
(§2) Shield1. Parasites were propagated in human red blood cells (blood group 0+) obtained from the Bavarian Red Cross service (BRK) and cultivated under standard conditions in RPMI 1640 (ThermoFisher) supplemented with 0.5% Albumax
(§3) (ThermoFisher), 20 µg/ml Gentamycin, 25 mM Hepes (pH 7.3), and 0.02% hypoxanthine in an atmosphere of 1% O2, 5% CO2, 94% N2.
(§4) Malaria SYBR green I based fluorescence assay
(§5) SYBR Green I based fluorescence assays to determine dose-response curves were performed essentially as described previously (Leidenberger et al., 2017). Briefly, parasite cultures were diluted to 1% ring stage parasitemia and cultivated at 2.5% haematocrit in 96 well plates in the presence of serial half-log dilutions of the compounds ranging from 100 µM to 10 nM or DMSO (dimethyl sulfoxide) corresponding to the highest concentration (0.1%). Chloroquine (C6628, Sigma-Aldrich) was used as control that was not expected to target PfBDP1 and was titrated from 5 µM to 1.6 nM. After 72 hours, cultures were lysed in lysis buffer (20 mM Tris-HCl, 5 mM EDTA, 0.008% saponin (Sigma-Aldrich), 0.08% Triton X (Sigma-Aldrich), 1:10,000 SYBR Green I dye (Invitrogen)) and fluorescence was measured in a Fluoroskan Ascent FL reader (excitation: 485 nm, emission: 530 nm). […]
Take `Cc1cc(C(N)=O)cc(C)c1-c1[nH]c(C)c2c1CCCCC2=O` [RMM25, 3,5-Dimethyl-4-(3-methyl-4-oxo-2,4,5,6,7,8-hexahydrocyclohepta[c]pyrrol-1-yl)benzamide]: the midpoint of the response, the EC50, lay at 19 µM.

A further assay relates to P. falciparum NF54. In words: Malaria SYBR green I based fluorescence assay, dose response, NF54. It is filed as cell-based. The note with it: Plasmodium falciparum, blood stage culture, 72 hours, mean (SD), 1 to 3 biological replicates. As for the experimental part:
as §1, §2, §3, §4, §5
Take `Cc1cc(C(N)=O)cc(C)c1-c1[nH]c(C)c2c1CCCCC2=O` [RMM25, 3,5-Dimethyl-4-(3-methyl-4-oxo-2,4,5,6,7,8-hexahydrocyclohepta[c]pyrrol-1-yl)benzamide]: the EC50 came out at 12.2 µM.

The subject of another assay is P. falciparum K1 (multidrug resistant). Put plainly: Malaria SYBR green I based fluorescence assay, dose response, K1. Type of assay: cell-based. To be noted: Plasmodium falciparum, K1, 72 h, read-out: EC50 K1. As for the experimental part: as §1
resistant strain K1, MRA-159, contributed by Dennis E. Kyle. […]
as §2, §3, §4, §5
For the compound `Cc1cc(C(N)=O)cc(C)c1-c1[nH]c(C)c2c1CCCCC2=O` [RMM25, 3,5-Dimethyl-4-(3-methyl-4-oxo-2,4,5,6,7,8-hexahydrocyclohepta[c]pyrrol-1-yl)benzamide], the EC50 was determined as 7.35 µM.

Another assay has as its system 3D7::PfBDP1HADD parasites. Put plainly: Dose-response assay in conditional PfBDP1 knockdown parasites. Type of assay: cell-based, Plasmodium falciparum. To be noted: 10 nM Shld1 compared to 500 nM Shld1, 72 h.
Source text: To validate whether the compounds indeed target the BRD of PfBDP1, we utilized a conditional KD system to modulate the expression levels of PfBDP1 in situ.^[ [15] ^] In the 3D7::PfBDP1HADD line, PfBDP1 is fused at its C‐terminus to a ligand‐regulatable FKBP destabilization domain (DD) that targets the fusion protein for proteasomal degradation but can be stabilized by the Shield1 ligand, and 3xHA epitope tags for detection ^11. […] In contrast, the EC50 of chloroquine was unchanged.
A) Western Blot analysis of 3D7::PfBDP1HADD parasites cultivated in the presence of Shield1 (Shld) in concentrations ranging from 0 to 500 nM over 72 h in duplicates. PfBDP1HADD was detected by anti‐HA antibodies. Histone 3 (H3) was probed as a loading control. […] Growth was determined relative to DMSO controls for each condition after 72 h of culture. N = 4 replicates. […] Binding of PfBDP1HA to target loci was calculated as enrichment relative to histone H3 ChIP performed in parallel. Shown are individual values and median of one representative experiment with technical duplicates. Paired t‐test, p = 0.0015. […]
resistant strain K1, MRA-159, contributed by Dennis E. Kyle. The NF54::PfBDP1HA parasite line was generated by transfection of NF54 parasites with the plasmid pSLI_PfBDP1_3xHA and selection linked integration of the construct in the presence of G418[21]. […]
as §4
SYBR Green I based fluorescence assays to determine dose-response curves were performed essentially as described previously (Leidenberger et al., 2017). […] After 72 hours, cultures were lysed in lysis buffer (20 mM Tris-HCl, 5 mM EDTA, 0.008% saponin (Sigma-Aldrich), 0.08% Triton X (Sigma-Aldrich), 1:10,000 SYBR Green I dye (Invitrogen)) and fluorescence was measured in a Fluoroskan Ascent FL reader (excitation: 485 nm, emission: 530 nm). […]
With `Cc1cc(C(N)=O)cc(C)c1-c1[nH]c(C)c2c1CCCCC2=O` [RMM25, 3,5-Dimethyl-4-(3-methyl-4-oxo-2,4,5,6,7,8-hexahydrocyclohepta[c]pyrrol-1-yl)benzamide], the “change of sensitivity (dose-response, EC50) under partial PfBDP1 knockdown” value was “moderately increased sensitivity”.

For `CCN(CC)CCCC(C)Nc1ccnc2cc(Cl)ccc12` (centres unmarked) [chloroquine, Chloroquine, reference compound], the “change of sensitivity (dose-response, EC50) under partial PfBDP1 knockdown” value is reported as “unchanged”.

These data come from article PMC12132910, “A Novel Inhibitor against the Bromodomain Protein 1 of the Malaria Pathogen Plasmodium Falciparum” (Chemmedchem, 2025).
